Experimental data taken from patent US20160137639A1, “TRIAZOLE-ISOXAZOLE COMPOUND AND MEDICAL USE THEREOF” (JAPAN TOBACCO INC., priority 2012, published 2016).
Read-outs that look alike come from different tables or passages of the source.

Columns and labels:
mouse RORγ = target: T1, mouse RORγ (Mus musculus, UniProt P51450); test: Luciferase reporter gene assay of inhibitory effect against RORγ transcriptional activity (GAL4-mRORγ plasmid in CHO cells); format: cell-based
T1 construct: mouse, NM_011281.2 and from Ile251 to Lys516; expressed in transfected cells; host or cells: CHO cells (transient co-transfection with pG5-Luc reporter)
T1 sequence (P51450 251-516): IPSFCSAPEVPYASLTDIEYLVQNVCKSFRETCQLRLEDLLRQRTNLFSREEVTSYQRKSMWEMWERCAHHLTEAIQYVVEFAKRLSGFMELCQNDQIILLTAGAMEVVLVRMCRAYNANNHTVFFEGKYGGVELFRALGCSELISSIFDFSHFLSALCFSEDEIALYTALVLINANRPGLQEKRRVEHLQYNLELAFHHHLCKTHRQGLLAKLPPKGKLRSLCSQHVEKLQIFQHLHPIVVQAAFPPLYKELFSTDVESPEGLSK
Method in brief: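 Readout is intracellular luciferase after 2-day compound exposure (8 concentrations, 0.1% DMSO) in CHO cells expressing GAL4 fused to mouse RORγ LBD residues Ile251–Lys516 plus pG5-Luc reporter. EC50 fitted from %-of-control; points showing resazurin-detected cytotoxicity dropped.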

human RORγ = target: T2, human RORγ (Homo sapiens, UniProt P51449); test: Luciferase reporter gene assay of inhibitory effect against RORγ transcriptional activity (GAL4-hRORγ plasmid in CHO cells); format: cell-based
T2 construct: human, NM_005060.3 and from Ser253 to Lys518; expressed in transfected cells; host or cells: CHO cells (transient co-transfection with pG5-Luc reporter)
T2 sequence (P51449 253-518): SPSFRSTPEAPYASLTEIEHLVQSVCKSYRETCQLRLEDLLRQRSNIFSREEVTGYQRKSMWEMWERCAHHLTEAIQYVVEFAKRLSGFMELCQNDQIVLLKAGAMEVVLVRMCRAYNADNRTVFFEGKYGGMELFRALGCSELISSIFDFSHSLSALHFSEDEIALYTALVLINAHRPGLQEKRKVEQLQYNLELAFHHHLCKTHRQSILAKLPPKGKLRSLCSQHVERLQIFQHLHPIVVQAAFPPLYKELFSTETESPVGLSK

SMILES	EC50 (mouse RORγ; read-out: LUC EC50 mRORg) [µM]	EC50 (human RORγ; read-out: LUC EC50 hRORg) [µM]	EC50 (mouse RORγ; read-out: LUC EC50 (μM) mRORg) [µM]	EC50 (human RORγ; read-out: LUC EC50 (μM) hRORg) [µM]
COc1cc(C)ccc1CNC(=O)CCc1noc(C23CC4CC(CC(C4)C2)C3)c1C1CC1 [Example F-735]	< 3	< 3		
Cc1ccc(NCc2nnc(CCC(=O)Nc3cccc(Cl)c3C)n2C2CC2)cc1 [Example F-180]			< 3	> 3
Cc1ccc(NC(=O)CCc2nnc(CCC3CCCCC3)n2C2CC2)c(C)c1 [Example F-95]			< 3	< 3
Cc1ccc(NC(=O)CCc2nnc(CCC3CCCCC3)n2[C@@H]2C[C@H]2C)c(C)c1 (racemic) [Example F-141]			< 3	> 3
Cc1ccc(NC(=O)C[C@H](CCC(=O)O)c2noc(-c3cc(C4C(C)(C)C4(C)C)on3)c2C2CC2)c(Cl)c1 [Example E-44]			< 3	< 3
Cc1ccc(NC(=O)CC(CCN(C)C)c2nnc(CCCC(C)C)n2C2CC2)c(C)c1 (racemic) [Example F-276]			> 3	> 3
Cc1ccc(NC(=O)C[C@H](CCC(=O)O)c2noc(-c3cc(C(F)(F)C4(C)CC4)on3)c2C2CC2)c(Cl)c1 [Example E-51]			< 3	< 3
Cc1ccc(NC(=O)C[C@H](CCC(=O)O)c2noc(-c3cc(CC(C)(C)C)on3)c2C2CC2)c(Cl)c1 [Example E-06]			< 3	< 3
COC(C)(C)CCCc1nnc([C@H]2CN(C(C)=O)C[C@@H]2C(=O)Nc2ccc(C)cc2C)n1C1CC1 (racemic) [Example F-290]			> 3	> 3
Cc1ccc(NC(=O)[C@H]2CN(C(C)C)C[C@@H]2c2nnc([C@H]3C[C@@H](CC(C)C)C3)n2C2CC2)c(C)c1 [Example F-597]	< 3	< 3		
Cc1ccc(NC(=O)C[C@@H](CCCO)c2nnc([C@H]3C[C@@H](CC(C)C)C3)n2C2CC2)c(C)c1 [Example F-510]	> 3	> 3		
CC(C)(C)C(F)(F)c1cc(-c2onc([C@@H](CCC(=O)O)CC(=O)Nc3ccc(Cl)cc3F)c2C2CC2)no1 [Example E-77]	< 3	< 3		
CCc1ccc(CNC(=O)CCc2nnc(CCC(C)C)n2C2CC2)cc1 [Example F-124]			> 3	> 3
Cc1cc(Cl)ccc1NC(=O)C[C@H](CC(C)C)c1nnc(-c2cc(CC(C)C)on2)n1C1CC1 [Example F-606]	< 3	< 3		
Cc1ccc(NC(=O)C[C@H](Cc2nccs2)c2nnc([C@H]3C[C@@H](CC(C)C)C3)n2C2CC2)c(C)c1 [Example F-475]			< 3	< 3
Cc1ccc(NC(=O)C[C@H](CCC(=O)O)c2noc(-c3ccc(CC(C)C)o3)c2C2CC2)c(Cl)c1 [Example E-28]			< 3	< 3
Cc1c(F)cccc1NC(=O)CCc1nnc(CCC(C)C)n1C1CC1 [Example F-101]			> 3	> 3
Cc1ccc(NC(=O)CC(CCO)c2nnc(C(F)(F)CCC(C)(C)C)n2C2CC2)c(C)c1 (racemic) [Example F-366]			< 3	< 3
Cc1ccc(NC(=O)C[C@H](CCC(=O)O)c2noc(-c3cc(CCC(C)(C)C)on3)c2C2CC2)c(F)c1 [Example E-31]			< 3	< 3
Cc1ccc(NC(=O)C[C@H](CNC(=O)CC#N)c2noc([C@H]3C[C@@H](CC(C)C)C3)c2C2CC2)c(C)c1 [Example F-647]	< 3	< 3		
Cc1ccc(NC(=O)C[C@@H](CC(C)(C)O)c2nnc([C@H]3C[C@@H](CC(C)C)C3)n2C2CC2)c(C)c1 [Example F-598]	> 3	> 3		
Cc1c(Cl)cccc1NC(=O)CC(CCO)c1nnc(CCC(C)C)n1C1CC1 (racemic) [Example F-175]			< 3	< 3
Cc1c(F)cccc1CNC(=O)CCc1nnc(CCC(C)C)n1C1CC1 [Example F-126]			> 3	> 3

SMILES	EC50 (mouse RORγ; read-out: LUC EC50 mRORg) [µM]	EC50 (human RORγ; read-out: LUC EC50 hRORg) [µM]	EC50 (mouse RORγ; read-out: LUC EC50 (μM) mRORg) [µM]	EC50 (human RORγ; read-out: LUC EC50 (μM) hRORg) [µM]
Cc1ccc(NC(=O)CCc2nnc(CCC3CCCCC3)n2CC(F)(F)F)c(C)c1 [Example F-142]			< 3	< 3
CCn1c(CCC(=O)Nc2cccc3ccccc23)nnc1CCC(C)C [Example F-19]			< 3	> 3
CCOC(=O)C(CC(=O)Nc1cccc(Cl)c1C)c1nnc(CCC(C)C)n1C1CC1 (racemic) [Example F-159]			> 3	> 3
Cc1cccc(NC(=O)CCc2nnc(CCCC(C)C)n2C2CC2)c1C [Example F-216]			< 3	< 3
Cc1ccc(NC(=O)C[C@H](CCC(=O)O)c2noc(-c3cc(CC(C)C)on3)c2C2CC2)c(F)c1 [Example E-03]			< 3	< 3
Cc1ccc(NC(=O)[C@H]2C[C@H](O)C[C@@H]2c2nnc([C@H]3C[C@@H](CC(C)C)C3)n2C2CC2)c(C)c1 (racemic) [Example F-421]			< 3	< 3
CC(C)CCc1nnc(CCC(=O)NCc2ccccc2)n1C1CC1 [Example F-57]			> 3	> 3
COc1cc(NC(=O)C[C@H](CCO)c2nnc([C@H]3C[C@@H](CC(C)C)C3)n2C2CC2)ccc1C [Example F-526]	< 3	< 3		
Cc1ccc(NC(=O)C[C@H](CCC(=O)O)c2nnn([C@H]3C[C@@H](CC(C)(C)C(C)C)C3)c2C(F)(F)F)c(F)c1 [Example F-707]	< 3	< 3		
COc1cc(C(F)(F)F)ccc1CNC(=O)CCc1nnc(CCC(C)C)n1C1CC1 [Example F-263]			< 3	< 3
CC(C)(C)Cc1cc(-c2noc([C@@H](CCC(=O)O)CC(=O)Nc3ccc(Cl)cc3Cl)c2C2CC2)no1 [Example E-74]			< 3	< 3
Cc1c(Cl)cccc1NC(=O)CCc1nnc(CCOC(C)C)n1C1CC1 [Example F-218]			< 3	> 3
Cc1cc(C(N)=O)ccc1NC(=O)CCc1nnc(CCC(C)C)n1C1CC1 [Example F-157]			> 3	> 3
CCC(C)(C)CCc1nnc([C@H]2CN(C(C)=O)C[C@@H]2C(=O)Nc2ccc(C)cc2C)n1C1CC1 (racemic) [Example F-299]			< 3	< 3
CC(C)(C)C[C@H]1C[C@@H](c2onc([C@@H](CCC(=O)O)CC(=O)NC34CC(C3)C4)c2C2CC2)C1 [Example F-712]	> 3	> 3		
Cc1ccc(NC(=O)C[C@H](CCC(=O)O)c2noc(-c3cc(C(F)(F)C4CC4)on3)c2C2CC2)c(Cl)c1 [Example E-73]			< 3	< 3
Cc1ccc(C2CC2)cc1NC(=O)CCc1nnc(CCC(C)C)n1C1CC1 [Example F-152]			> 3	> 3
Cc1c(Cl)cccc1NC(=O)CCc1nnc(CC[C@H]2CC[C@H](C(F)(F)F)CC2)n1C1CC1 [Example F-250]			> 3	> 3
CCn1c(C2Cc3ccccc3C2)nnc1[C@H](C)CC(=O)Nc1cccc2ccccc12 [Example F-2]			< 3	< 3
COc1cc(C)ccc1CNC(=O)CCc1nnc(CCC2CCC(F)(F)CC2)n1C1CC1 [Example F-257]			< 3	< 3
CCCc1ccc(C)c(NC(=O)CCc2nnc(CCC(C)C)n2C2CC2)c1 [Example F-153]			> 3	> 3
CC(=O)N1C[C@H](C(=O)Nc2ccc(C)cc2C)[C@@H](c2nnc([C@H]3CC[C@H](C(C)C)CC3)n2C2CC2)C1 (racemic) [Example F-300]			< 3	< 3
